Test results: patent publication US20250171451A1, “NOVEL HETEROCYCLIC COMPOUND AND PHARMACEUTICAL COMPOSITION COMPRISING SAME” (Samjin Pharmaceutical Co., Ltd., priority 2022, published 2025)

Experiments:
[1] = tested on: NF2-deficient mesothelioma cell line NCI-H226; assay: Evaluation of inhibition of cancer cell proliferation (CellTiter-Glo); format: cell-based; details: Homo sapiens, 120 h, NCI-H226 cells, five days treatment, 2% FBS, read-out: Cancer cell growth inhibition NCI-H226 (GI50)
Protocol: The NF2-deficient mesothelioma cell line NCI-H226 was purchased from ATCC (#CRL-5826). NCI-H226 cells were cultured in RRPMI medium (ATCC) containing penicillin (100 units/mL), streptomycin (100 μg/mL) and 10% fetal bovine serum (FBS) at 37° C. and 5% CO2.
In 24 hours after dispensing said NCI-H226 cells into a 96-well plate, the cell culture medium was removed all, and then each compound corresponding to a certain concentration section (0.01, 0.05, 0.1, 0.5, 1, 5, 10 μM) or a vehicle solvent (final 1% DMSO) was diluted with a culture medium containing 2% FBS, treated at 100 μL for each well, and then cultured at 37° C. and 5% CO2. In five days after said treatment, CellTiter-Glo@2.0 Reagent (Promega) was treated in the same amount as the culture medium to measure cell growth, and placed in a shaker for two minutes so as to be well mixed, after which the plate was cultured at room temperature for ten minutes to stabilize a luminescence signal. After that, for ATP measurement through an intracellular luciferase reaction, the luminescence signal was measured using a microplate reader (TECAN). The value of the […] (GI50) at the moment when the cell proliferation was reduced by half was derived using the SoftMax Pro 5.4.1 program, and the results are shown in table 10 below.

[2] = tested on: TEAD response element (TRE) luciferase reporter in MCF-7 cell lines; assay: TEAD response element (TRE) reporter assay; format: cell-based; details: Homo sapiens, MCF7; 0.2 μM compound, 24 hours, MCF-7 TEAD reporter cells, relative to vehicle (1% DMSO)
How it was run: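 MCF-7 cells stably carrying a TRE-driven firefly luciferase reporter, treated 24 h after plating with compound at 0.2 μM final (1% DMSO) in serum-free medium for 24 h. Luminescence expressed relative to vehicle control set at 10000.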

[3] = target: T1, recombinant GST-TEAD1 proteins (209 to 426 a.a.) (Homo sapiens, UniProt P28347); assay: Evaluation of palmitoylation of TEAD protein; format: biochemical; details: 5 μM compound, 15 minutes preincubation, 3 μM alkyne palmitoyl-CoA 30 minutes, pH 6.4, vs DMSO control
T1 construct: recombinant GST-TEAD1 proteins (209 to 426 a.a.)
T1 sequence (P28347 209-426): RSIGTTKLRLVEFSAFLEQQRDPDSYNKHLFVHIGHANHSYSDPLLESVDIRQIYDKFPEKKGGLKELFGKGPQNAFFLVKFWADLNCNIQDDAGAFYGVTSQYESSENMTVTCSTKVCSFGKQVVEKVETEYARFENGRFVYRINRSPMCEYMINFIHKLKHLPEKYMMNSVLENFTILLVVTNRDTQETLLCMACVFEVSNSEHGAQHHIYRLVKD
How it was run: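 GST-TEAD1 (aa 209–426) preincubated 15 min with 5 μM compound, then autopalmitoylated 30 min with 3 μM alkyne palmitoyl-CoA in 50 mM MES pH 6.4; stopped with 1% SDS. Click biotinylation, SDS-PAGE and streptavidin-HRP blot; band intensity relative to DMSO control, normalised to anti-GST signal.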

Row | SMILES | GI50 [1] [nM] | inhibition at 5 µM [3] [%] | inhibition at 0.2 µM [2] [%]
1 | C=CC(=O)N(C)c1cnc2c(c1)c(C)nn2-c1ccc(C(F)(F)F)nc1 [Compound 92, N-methyl-N-(3-methyl-1-(6-(trifluoromethyl)pyridin-3-yl)-1H-pyrazolo[3,4-b]pyridin-5-yl)acrylamide] | 50 | 40 to 80 | > 50
2 | C=CC(=O)Nc1cnc2c(c1)c(C)nn2-c1ccc(C(F)(F)F)nc1 [Compound 77, N-(3-methyl-1-(6-(trifluoromethyl)pyridin-3-yl)-1H-pyrazolo[3,4-b]pyridin-5-yl)acrylamide] | 30 | 40 to 80 | > 50
3 | C=CC(=O)Nc1cnc2c(c1)c(C)cn2-c1cccc(C(F)(F)F)c1 [Compound 50, N-(3-methyl-1-(3-(trifluoromethyl)phenyl)-1H-pyrrolo[2,3-b]pyridin-5-yl)acrylamide] | 280 | > 80 | > 50
4 | C=CC(=O)N(C)c1cnc2c(c1)c(C)nn2-c1ccc(OC(F)(F)F)cc1 [Compound 90, N-methyl-N-(3-methyl-1-(4-(trifluoromethoxy)phenyl)-1H-pyrazolo[3,4-b]pyridin-5-yl)acrylamide] | 30 | > 80 | > 50
5 | C=CC(=O)Nc1cnc2c(c1)c(Cl)cn2Cc1ccc(C(F)(F)F)cc1 [Compound 43, N-(3-chloro-1-(4-(trifluoromethyl)benzyl)-1H-pyrrolo[2,3-b]pyridin-5-yl)acrylamide] | 220 | > 80 | > 50
6 | C=CC(=O)Nc1cnc2c(c1)c(Br)cn2Cc1ccc(C(F)(F)F)cc1 [Compound 40, N-(3-bromo-1-(4-(trifluoromethyl)benzyl)-1H-pyrrolo[2,3-b]pyridin-5-yl)acrylamide] | 220 | > 80 | > 50
7 | C=CC(=O)Nc1cnc2c(c1)c(C)cn2Cc1ccc(C(F)(F)F)cc1 [Compound 3, N-(3-methyl-1-(4-(trifluoromethyl)benzyl)-1H-pyrrolo[2,3-b]pyridin-5-yl)acrylamide] | 70 | > 80 | > 50
8 | C=CC(=O)N(C)c1cnc2c(c1)c(C)nn2-c1ccc(C(F)(F)F)cc1 [Compound 86, N-methyl-N-(3-methyl-1-(4-(trifluoromethyl)phenyl)-1H-pyrazolo[3,4-b]pyridin-5-yl)acrylamide] | 30 | > 80 | > 50
9 | C=CC(=O)Nc1cnc2c(c1)c(C)cn2-c1ccc(C(F)(F)F)cc1 [Compound 27, N-(3-methyl-1-(4-(trifluoromethyl)phenyl)-1H-pyrrolo[2,3-b]pyridin-5-yl)acrylamide] | 80 | > 80 | > 50
10 | C=CC(=O)Nc1cnc2c(c1)c(C)nn2-c1cc(Cl)c(Cl)cc1C [Compound 105] | 260 | 40 to 80 | > 50
11 | C=CC(=O)Nc1cnc2c(c1)c(C)nn2-c1ccc(C(F)(F)F)c(C)c1 [Compound 74, N-(3-methyl-1-(3-methyl-4-(trifluoromethyl)phenyl)-1H-pyrazolo[3,4-b]pyridin-5-yl)acrylamide] |  | 40 to 80 | > 50

Now from value to compound, other results behind:

Row | GI50 [1] [nM] | inhibition at 5 µM [3] [%] | SMILES | inhibition at 0.2 µM [2] [%]
12 | 50 | > 80 | C=CC(=O)Nc1cnc2c(c1)c(C)nn2-c1ccc(Cl)cc1 [Compound 65, N-(1-(4-chlorophenyl)-3-methyl-1H-pyrazolo[3,4-b]pyridin-5-yl)acrylamide] | > 50
13 | 10 | > 80 | C=CC(=O)Nc1cnc2c(c1)c(C)nn2-c1ccc(C(F)(F)F)cc1 [Compound 42, N-(3-methyl-1-(4-(trifluoromethyl)phenyl)-1H-pyrazolo[3,4-b]pyridin-5-yl)acrylamide] | > 50
14 | 300 | 40 to 80 | C=CC(=O)Nc1cnc2c(c1)c(C)nn2-c1cnc(C(F)(F)F)nc1 [Compound 95, N-(3-methyl-1-(2-(trifluoromethyl)pyrimidin-5-yl)-1H-pyrazolo[3,4-b]pyridin-5-yl)acrylamide] | > 50
15 | 50 | > 80 | C=CC(=O)Nc1cnc2c(c1)c(C)nn2-c1ccc(OC(F)(F)F)cc1 [Compound 66, N-(3-methyl-1-(4-(trifluoromethoxy)phenyl)-1H-pyrazolo[3,4-b]pyridin-5-yl)acrylamide] | > 50
16 | 170 | 40 to 80 | C=CC(=O)Nc1cnc2c(c1)c(C)cn2-c1ccc(Cl)cc1 [Compound 54, N-(1-(4-chlorophenyl)-3-methyl-1H-pyrrolo[2,3-b]pyridin-5-yl)acrylamide] | > 50
